Values quoted from earlier work, collected in patent publication CN104306347A, “一种卡维地洛双层缓释片及其制备方法” (BEIJING D-VENTUREPHARM TECHNOLOGY DEVELOPMENT Co Ltd, priority 2014, dated 2015).

Assays:
[1] = in vivo

For `COc1ccccc1OCCNCC(O)COc1cccc2[nH]c3ccccc3c12` (stereo not shown) [卡维地洛], the “incidence of adverse reactions” value [1] is given as “很低”, the “risk of postural hypotension when taken with food” value [1] is given as “可减少引起体位性低血压的危险性” and the tolerability [1] is given as “耐受性良好”. The first-pass effect (after oral administration) was “有明显的首过效应”, the oral absorption (after oral administration) was “易于吸收” and the “elimination phase half-life (t1/2b)” value (in vivo) was 7~10 h. The “excretion in urine as unchanged drug” value (in vivo) was less than 2%, the plasma clearance (in vivo) was 500~700 ml/min and the “steady-state volume of distribution” value (in vivo) was roughly 1.5 L. The metabolism (metabolites excreted via bile then faeces) was “代谢完全”, the “absolute bioavailability (F)” value (oral) was 25%~35% and the “absorption when taken with food” value (taken with food) was “吸收减慢”. For the same molecule, the “relative bioavailability when taken with food” value (taken with food) was “没有明显影响”.
